Data reported in patent US8758769B2, “Composition for preventing and treating acetaminophen inducing liver injury comprising the protein extract from Porphyra yezoensis” (Pukyong National University Industry Academic Cooperation …, priority 2006, dated 2014).

How the values were obtained:
Type in all cases: cell-based
HepG2 liver cell = assay: LDH activity, toxicity of HepG2 liver cell by AAP treatment; details: HepG2, AAP 10, 20 and 40 mM
Description: To examine the toxicity of the liver cell by the AAP treatment, the activity of LDH is measured. That is, 100[…] per a well with the concentration of 2×10^4 cells/ml is divided into 96-well microplates (palcon, USA) and cultured. After 24 hours, a medium is replaced with an MEM medium including 1% FBS, then cultured again for 24 hours, and thereafter treated by an assay medium of 100[…] and AAP 100[…] (10, 20 and 40 mM). The obtained upper solution of 100[…] is moved into a new 96-well microplate, then 100[…] of the reaction mixture (solution I 250[…]+solution II 11.25[…]) is added to the new 96-well microplate. Thereafter, at the state that the light is intercepted by foil, a reaction is progressed for 30 minutes at 15˜25° C. Thereafter, the absorbance at 490 nm is measured by using an automatic ELIZA reader.

HepG2 cell = assay: Cell apoptosis of the liver cell line by AAP (DAPI dyeing, DNA fragmentation); details: HepG2, culture for 24 hours with AAP
Source text: Accordingly, to confirm that the cell proliferation inhibition effect by AAP is a phenomenon by the cell apoptosis, the cell with AAP and cell with no AAP are washed by PBS by means of the characteristics in which only DNA within the cell nucleus, especially, only the cell apoptosis DNA is dyed. Thereafter, the cells are dyed by the DAPI solution and then observed by a fluorescent microscopy.
Specifically, the HepG2 cell treated by the seaweed protein is washed by PBS, fixed at the room temperature for 10 minutes by 3.7% of paraformaldehyde, and dyed by means of the 4,6-diamindino-2-phenylindole (DAPI)(sigma) solution as fluorescent materials for 10 minutes. These cells are again washed by twice and the form change of the nucleus thereof is compared with that of the normal group by means of a fluorescence microscope.
To examine the DNA fragmentation phenomenon, the seaweed protein purified by the example 1 is added to the liver cell by concentration (0˜100[…]/□), then cultured for 24 hours, and thereafter mixed with the homogenate (nuclear lysis buffer, 100 mM NaCl2, 40 mM Tris-Cl, pH 7.4, 20 mM EDTA, 0.5% SDS). […] 10[…] of DNA is treated by an electrophoresis manner (50V, 2 hours) in the agarose cell, dyed by editium bromide, and measured by means of ultraviolet rays and the like.

[1] = system: PCNA and caspase-3 in liver cell; assay: Liver cell injury inhibition by seaweed protein: PCNA and caspase-3 expression (western blot); details: 20 mM AAP with or without seaweed protein
Description: Through the above results, it is confirmed that the cell apoptosis of the liver cell is induced by the increase of the AAP concentration and accordingly, the seaweed protein and AAP are processed together and the liver injury inhibition effect of the seaweed protein by AAP is confirmed.
At first, the degree of the PCNA protein expression capable of securing the recovery of the injured cell is confirmed. For this, a liver tissue is homogenized by lysis buffer (25 mM HEPES, pH 7.5, 5 mM EDTA, 2 mM DTT, 0.1% CHAPS) containing the protease inhibitor and then centrifuged by 14,000×g at 4° C. Thereafter, the protein concentration of the obtained upper layer solution is measured by means of a BCA protein assay kit. A loading process is performed by 50[…] per each lane, an electrophoresis process is performed by SDS-PAGE, and thereafter it is moved toward the PVDF membrane (Millipore, USA). At this time, the rainbow molecular marker (amersham) is used as the standard molecular weight. In the separated protein, the expressin of the caspase-3 protein is confirmed by means of Super Signal West Pico Chemiluminescent Substrate (pierce biotechnology incorporation, USA). […]

Question: Which results are given for `CC(=O)Nc1ccc(O)cc1` [AAP, Acetaminophen]?
Answer: Activity of LDH (degree of liver cell injury) (HepG2 liver cell): increased in proportion to the AAP concentration; Cell apoptosis by DAPI dyeing (FIG. 8) (HepG2 cell): many cell apoptosis modes with the red color are formed; DNA fragmentation in liver cell (FIG. 8) (HepG2 cell): The DNA fractions are confirmed identically; Cleaved caspase-3 with activation (FIG. 9) [1]: the activated and cleaved caspase-3 is increased
